Publication PMC7949139, “The molecular basis of OH-PCB estrogen receptor activation” (The Journal of Biological Chemistry, 2021)
Changes are numbered by the printed parent chain. Like-named read-outs stand apart in the source and are kept apart here.

Tests used:
WT SULT1E1 = biological target: T1, WT SULT1E1 (Homo sapiens, UniProt P49888); test: Initial-rate studies (1-HP sulfonation; OH-PCB inhibition), WT enzyme; type: biochemical
T1 construct: E. coli codon-optimized SULT1E1 coding region inserted into the PreScission Protease cleavage site; His/GST/MBP triple tag (N, cleaved yes); made in house; host or cells: E. coli BL21(DE3)
T1 sequence (P49888 1-294): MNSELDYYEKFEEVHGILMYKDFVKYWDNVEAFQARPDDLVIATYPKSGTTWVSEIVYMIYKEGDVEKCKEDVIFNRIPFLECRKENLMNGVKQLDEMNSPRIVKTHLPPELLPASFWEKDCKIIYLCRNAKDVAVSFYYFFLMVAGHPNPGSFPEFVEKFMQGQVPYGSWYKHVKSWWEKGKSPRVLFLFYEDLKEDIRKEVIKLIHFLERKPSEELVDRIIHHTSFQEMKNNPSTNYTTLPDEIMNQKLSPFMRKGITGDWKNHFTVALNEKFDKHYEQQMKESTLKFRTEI
Method: (§1) C. Reaction progress was monitored via the fluorescence change associated with 1-HP sulfonation (λex = 325 nm, λem = 370 nm ([51], [52])). Initial rates were measured during conversion to product of ≤5% of the concentration-limiting substrate consumed at the reaction endpoint. Velocities were determined in triplicate. Km and kcat were obtained by (1/v^4)-weighted least-squares fitting of the averaged data in double-reciprocal space (i.e., 1/v versus 1/[S]) ([66], [67]).
(§2) Inhibition studies were performed as described above except: 1-HP was fixed (2.0 μM, 100 × Km), OH-PCBs were added (0.20–20 × Ki), and SULT1E1 was 0.20 nM (active sites). Ki was determined by least-squares fitting to a noncompetitive inhibition model ([66], [67]).

[1] = biological target: T2, spin-labeled SULT1E1, spin label attached at Cys residue 150 (C69S/N150C) (Homo sapiens, UniProt P49888, C69S/N150C); test: Initial-rate studies, spin-labeled construct (label at Cys 150); type: biochemical; details: spin label at Cys 150; parentheses = one SD; read-out: Ki OH-PCB1
T2 construct: E. coli codon-optimized SULT1E1 coding region inserted into the PreScission Protease cleavage site; His/GST/MBP triple tag (N, cleaved yes); made in house; host or cells: E. coli BL21(DE3)
T2 sequence (P49888 1-294 C69S/N150C): T1 sequence (P49888 1-294) with C69S, N150C
Method: Spin labels were attached to the SULT1E1 scaffold at Cys residues that were site-specifically incorporated via PCR-based mutagenesis. Prior to creating spin-label attachment constructs, reactive Cys was removed from the native scaffold. Only one of the four native SULT1E1 Cys (i.e., C69) reacts with DTNB ([39]), and mutagenic conversion of C69 to ser produced a stable, fully active non-DTNB-reactive scaffold. Five individual cys-attachment constructs were prepared from the C69S mutant (G16C, K25C, N150C, Q163C, and N233C). Mutants were labeled (see, Experimental procedures) and the initial rate parameters (kcat, Km and Ki) of each spin-labeled mutant were determined (see, Experimental procedures, Initial-Rate studies) to evaluate whether the catalytic integrity of the constructs had been compromised by the insertions and/or spin label attachments. […]
Labels (N-cyclohexylmale-imide or 3-maleimido-PROXYL) were added in 20-fold excess over reactive cysteine to a solution containing SULT1E1 construct (50 μM active sites), 0.50 mM PAP, and 50 mM KPO4 (pH 7.4), 25 °C ± 2 deg. […] The reactions were monitored by using DTNB to measure unreacted cysteine and were considered complete when >98% of the cysteine had reacted (∼3 h).
C. Reaction progress was monitored via the fluorescence change associated with 1-HP sulfonation (λex = 325 nm, λem = 370 nm ([51], [52])). […]

SULT1E1 Y239A = biological target: T3, SULT1E1 Y239A (Homo sapiens, UniProt P49888, Y239A); test: Initial-rate studies (1-HP sulfonation; OH-PCB1 inhibition), Y239A mutant; type: biochemical
T3 construct: E. coli codon-optimized SULT1E1 coding region inserted into the PreScission Protease cleavage site; His/GST/MBP triple tag (N, cleaved yes); made in house; host or cells: E. coli BL21(DE3)
T3 sequence (P49888 1-294 Y239A): T1 sequence (P49888 1-294) with Y239A
Method: as §1, §2

SULT1E1 F80A/F75A = biological target: T4, SULT1E1 F80A/F75A (Homo sapiens, UniProt P49888, F75A/F80A); test: Initial-rate studies (1-HP sulfonation; OH-PCB1 inhibition), double mutant; type: biochemical
T4 construct: E. coli codon-optimized SULT1E1 coding region inserted into the PreScission Protease cleavage site; His/GST/MBP triple tag (N, cleaved yes); made in house; host or cells: E. coli BL21(DE3)
T4 sequence (P49888 1-294 F75A/F80A): T1 sequence (P49888 1-294) with F75A, F80A
Method: as §1, §2

SULT1E1 = biological target: T5, SULT1E1 (Homo sapiens, UniProt P49888); test: Equilibrium binding studies (SULT1E1 intrinsic fluorescence); details: for Kd: pH 7.4, 25 °C, spread = one SD
T5 construct: E. coli codon-optimized SULT1E1 coding region inserted into the PreScission Protease cleavage site; His/GST/MBP triple tag (N, cleaved yes); made in house; host or cells: E. coli BL21(DE3)
T5 sequence (P49888 1-294): T1 sequence (P49888 1-294)
Method: The binding of inhibitors to WT and mutant SULT1E1 was monitored via ligand-induced changes in the intrinsic fluorescence of the enzyme (λex= 290 nm, λem= 340 nm) ([4]). […] C. Titrations were performed in triplicate and the averaged data were least-squares fit to the following quadratic, single-site binding model: Io − ΔI∙(([L]+Etot + Kd) − [([L]+Etot + Kd)^2 − (4∙[L]∙Etot)]^1/2)/2∙Etot, where Io and ΔI represent fluorescent intensity at zero and infinite [L].

[2] = noncompetitive inhibition model, parentheses = one SD

Oc1ccc(-c2c(Cl)cccc2Cl)cc1 [OH-PCB1, 4ʹ-OH-2,6-dichlorobiphenol]
Fold Effect = Ki OH-PCB1/Ki OH-PCB1 WT (WT SULT1E1; WT): 1.0
Ki (WT SULT1E1; WT SULT1E1, Table 1, parentheses = one SD, read-out: Ki OH-PCB1): 60 nM
Ki [1]: 65 nM
Fold Effect = Ki OH-PCB1/Ki OH-PCB1 WT (SULT1E1 Y239A): 5.7
Ki (SULT1E1 Y239A; [2]): 340 nM
Fold Effect = Ki OH-PCB1/Ki OH-PCB1 WT (SULT1E1 F80A/F75A): 113
Ki (SULT1E1 F80A/F75A; [2]): 6800 nM
Kd (SULT1E1; E2 4.0 μM (higher partner concentration), PAP 300 μM, read-out: Kd, ligand binding to enzyme species E⋅PAP⋅E2): 62 nM
Kd (SULT1E1; E2 4.0 μM, no PAP, read-out: Kd, ligand binding to enzyme species E⋅E2): 66 nM
fold tighter binding in the presence of the partner ligand (OH-PCB1/E2 interaction) (SULT1E1; OH-PCB1: E⋅E2 versus E, E2: E⋅PAP⋅OH-PCB1 versus E⋅PAP): ~12 fold
Kd (SULT1E1; PAP 300 μM, read-out: Kd, ligand binding to enzyme species E⋅PAP): 780 nM
Kd (SULT1E1; free enzyme E, read-out: Kd, ligand binding to enzyme species E): 750 nM
